The results in this text go back to US10105357B2, “Indication of antibiotic drugs for preparation of cancer inhibition pharmaceutical composition” (LAUNX BIOMEDICAL CO., LTD., priority 2014, dated 2018).

Data set [1] has as its system 786-O (Renal adenocarcinoma). The data set is described as follows: Cell viability analysis, renal cancer 786-O. Format: cell-based, human.
The test system of data set [2] is HI650 (Lung Adenocarcinoma). The data set is described as follows: Cell viability analysis, lung cancer HI650. Format: cell-based, human.
The test system of a further data set is BxPC-3. Briefly: Cell viability analysis, pancreatic cancer BxPC-3. Format: cell-based, human.
The next data set has as its system AsPC-1. The data set is described as follows: Cell viability analysis, pancreatic cancer AsPC-1. Format: cell-based, human.
The subject of another data set is U-2OS. Briefly: Cell viability analysis, osteosarcoma U-2OS. Format: cell-based, human.
Data set [3] has as its system A549 (Lung Adenocarcinoma). The data set is described as follows: Cell viability analysis, lung cancer A549. The format is cell-based, human.
For data set [4], the system named is MDA-MB-231 (Mammary Gland, Adenocarcinoma). The data set is described as follows: Cell viability analysis, breast cancer MDA-MB-231. The format is cell-based, human.
Another data set relates to NIH: OVCAR-3. The data set is described as follows: Cell viability analysis, ovarian cancer NIH: OVCAR-3. Format: cell-based, human.
The test system of data set [5] is SAS (Tongue squamous cell carcinoma). The data set is described as follows: Cell viability analysis, tongue cancer SAS. The format is cell-based, human.
Data set [6] has as its system PC3 (p53−) (Prostate Adenocarcinoma). Briefly: Cell viability analysis, prostate cancer PC3. The format is cell-based, human.
The test system of data set [7] is TSGH-8301 (Urinary Bladder Carcinoma). The data set is described as follows: Cell viability analysis, bladder cancer TSGH-8301. Format: cell-based, human.
Data set [8] has as its system HCT116 (p53+) (Colorectal Carcinoma).
Data set [9] concerns C-33A (Cervical carcinoma). Briefly: Cell viability analysis, cervical cancer C-33A. The format is cell-based, human.
Data set [10] has as its system HeLa (Cervix Adenocarcinoma). Briefly: Cell viability analysis, cervical cancer HeLa. Format: cell-based, human.
The test system of data set [11] is MKN-45 (Gastric Adenocarcinoma). The data set is described as follows: Cell viability analysis, gastric cancer MKN-45. The format is cell-based, human.
The subject of data set [12] is LoVo (Colorectal Adenocarcinoma). Briefly: Cell viability analysis, colon cancer LoVo. The format is cell-based, human.
The subject of the next data set is T24. Briefly: Cell viability analysis, bladder cancer T24. The format is cell-based, human.
Data set [13] deals with BCC (basal cell carcinoma). Briefly: Cell viability analysis, skin cancer BCC. The format is cell-based, human.
In data set [14] the test system is A375 (Amelanotic Melanoma). The data set is described as follows: Cell viability analysis, skin cancer A375. The format is cell-based, human.
Data set [15] deals with AGS (Gastric Adenocarcinoma). The data set is described as follows: Cell viability analysis, gastric cancer AGS. Format: cell-based, human.
Data set [16] concerns MCF7 (Mammary Gland, Adenocarcinoma). Briefly: Cell viability analysis, breast cancer MCF7. Format: cell-based, human.
The test system of another data set is TOV-21G. Briefly: Cell viability analysis, ovarian cancer TOV-21G. The format is cell-based, human.
Data set [17] deals with Hep3B (hepatocellular carcinoma). Briefly: Cell viability analysis, hepatic cancer Hep3B. Format: cell-based, human.
The subject of data set [18] is HepG2 (Hepatocellular Carcinoma). Briefly: Cell viability analysis, hepatic cancer HepG2. Format: cell-based, human.

The term viability denotes a read-out of living cells in per cent, often relative to untreated cells. Turning to `CCCOc1ccc2nc(NC(=O)OC)[nH]c2c1` [Oxibendazole], the viability at 10 µM in data set [1] (Homo sapiens, 786-0, 72 h, read-out: The results of antibiotic drug inhibiting cancer cell lines (cell viability analysis), 786-O) turned out to be 18.5%; in data set [2] (Homo sapiens, NCI-H1650, 72 h, read-out: The results of antibiotic drug inhibiting cancer cell lines (cell viability analysis), H1650, H1650, repeated experiment) it was 41.3%; in the data set with BxPC-3 (Homo sapiens, BXPC-3, 72 h, read-out: The results of antibiotic drug inhibiting cancer cell lines (cell viability analysis), BxPC-3), 29.1%; in the data set with AsPC-1 (Homo sapiens, ASPC1, 72 h, read-out: The results of antibiotic drug inhibiting cancer cell lines (cell viability analysis), AsPC-1) it was 33%; in the data set with U-2OS (Homo sapiens, U2OS, 72 h, read-out: The results of antibiotic drug inhibiting cancer cell lines (cell viability analysis), U2OS) it was 46.6%; in data set [3] (Homo sapiens, A549, 72 h, read-out: The results of antibiotic drug inhibiting cancer cell lines (cell viability analysis), A549, A549, repeated experiment) it was 24%. For the same compound, the viability at 10 µM in [4] (Homo sapiens, MDA-MB-231, 72 h, read-out: The results of antibiotic drug inhibiting cancer cell lines (cell viability analysis), MDA-MB231) is 48.9%; in the data set with NIH: OVCAR-3 (Homo sapiens, OVCAR-3, 72 h, read-out: The results of antibiotic drug inhibiting cancer cell lines (cell viability analysis), NIH-OVCAR-3), 54.8%; in data set [5] (Homo sapiens, 72 h, read-out: The results of antibiotic drug inhibiting cancer cell lines (cell viability analysis), SAS), 41.2%; in [6] (Homo sapiens, 72 h, read-out: The results of antibiotic drug inhibiting cancer cell lines (cell viability analysis), PC-3, PC-3, repeated experiment), 38.9%; in [7] (Homo sapiens, 72 h, read-out: The results of antibiotic drug inhibiting cancer cell lines (cell viability analysis), TSGH-8301, TSGH-8301, repeated experiment), 48.6%; in [9] (Homo sapiens, C-33-A, 72 h, read-out: The results of antibiotic drug inhibiting cancer cell lines (cell viability analysis), C-33A) it was 47.8%. For the same compound, the viability at 10 µM in data set [10] (Homo sapiens, HeLa, 72 h, read-out: The results of antibiotic drug inhibiting cancer cell lines (cell viability analysis), HeLa, repeated experiment) was found to be 29.3%; in data set [11] (Homo sapiens, MKN-45, 72 h, read-out: The results of antibiotic drug inhibiting cancer cell lines (cell viability analysis), MKN-45, MKN-45, repeated experiment) it was 65.6%; in data set [12] (Homo sapiens, LoVo, 72 h, read-out: The results of antibiotic drug inhibiting cancer cell lines (cell viability analysis), LoVo, repeated experiment), 53.4%; in the data set with T24 (Homo sapiens, T-24, 72 h, read-out: The results of antibiotic drug inhibiting cancer cell lines (cell viability analysis), T24), 38.1%; in data set [13] (Homo sapiens, 72 h, read-out: The results of antibiotic drug inhibiting cancer cell lines (cell viability analysis), BCC) it was 34.3%; in [14] (Homo sapiens, A-375, 72 h, read-out: The results of antibiotic drug inhibiting cancer cell lines (cell viability analysis), A375, A375, repeated experiment), 31.8%. In addition, the viability at 10 µM in [15] (Homo sapiens, 72 h, read-out: The results of antibiotic drug inhibiting cancer cell lines (cell viability analysis), AGS, repeated experiment) was found to be 37.6%; in [16] (Homo sapiens, MCF7, 72 h, read-out: The results of antibiotic drug inhibiting cancer cell lines (cell viability analysis), MCF-7, MCF-7, repeated experiment), 60.9%; in the data set with TOV-21G (Homo sapiens, TOV21G, 72 h, read-out: The results of antibiotic drug inhibiting cancer cell lines (cell viability analysis), TOV-21G) it was 26.6%; in data set [17] (Homo sapiens, Hep3B, 72 h, read-out: The results of antibiotic drug inhibiting cancer cell lines (cell viability analysis), Hep3B), 59.8%; in [18] (Homo sapiens, HepG2, 72 h, read-out: The results of antibiotic drug inhibiting cancer cell lines (cell viability analysis), HepG2, HepG2, repeated experiment), 64.5%. Besides, in data set [8], the viability was 22.1%.
For the compound `CS(=O)(=O)c1ccc([C@@H](O)[C@@H](CO)NC(=O)C(Cl)Cl)cc1` [Thiamphenicol (Thiophenicol)], in data set [1], the “The results of antibiotic drug inhibiting cancer cell lines (cell viability analysis), 786-O” value is 93.48. The “The results of antibiotic drug inhibiting cancer cell lines (cell viability analysis), H1650” value in [2] came out at 94.92. Also, the “The results of antibiotic drug inhibiting cancer cell lines (cell viability analysis), BxPC-3” value in the data set with BxPC-3 came out at 86.08. In addition, the “The results of antibiotic drug inhibiting cancer cell lines (cell viability analysis), AsPC-1” value in the data set on AsPC-1 is recorded as 102.5. In the data set with U-2OS, the “The results of antibiotic drug inhibiting cancer cell lines (cell viability analysis), U2OS” value turned out to be 51.12. Besides, in [3], the “The results of antibiotic drug inhibiting cancer cell lines (cell viability analysis), A549” value turned out to be 97.41. For the same compound, the “The results of antibiotic drug inhibiting cancer cell lines (cell viability analysis), MDA-MB231” value in [4] turned out to be 95.4. The “The results of antibiotic drug inhibiting cancer cell lines (cell viability analysis), NIH-OVCAR-3” value with NIH: OVCAR-3 was determined as 115.7. Moreover, the “The results of antibiotic drug inhibiting cancer cell lines (cell viability analysis), SAS” value in data set [5] is 54.04. Further, in [6], the “The results of antibiotic drug inhibiting cancer cell lines (cell viability analysis), PC-3” value stood at 150.2. For the same compound, the “The results of antibiotic drug inhibiting cancer cell lines (cell viability analysis), TSGH-8301” value in data set [7] was found to be 136.8. Besides, the viability in data set [8] came to 150%. The “The results of antibiotic drug inhibiting cancer cell lines (cell viability analysis), C-33A” value in [9] was found to be 140.2. Besides, the “The results of antibiotic drug inhibiting cancer cell lines (cell viability analysis), HeLa” value in [10] was 90.82. The “The results of antibiotic drug inhibiting cancer cell lines (cell viability analysis), MKN-45” value in data set [11] is reported as 177. In [12], the “The results of antibiotic drug inhibiting cancer cell lines (cell viability analysis), LoVo” value was 96.08. Moreover, the “The results of antibiotic drug inhibiting cancer cell lines (cell viability analysis), T24” value in the data set on T24 is reported as 164. Also, the “The results of antibiotic drug inhibiting cancer cell lines (cell viability analysis), BCC” value in data set [13] came to 111.8. Moreover, the “The results of antibiotic drug inhibiting cancer cell lines (cell viability analysis), A375” value in [14] stood at 112. For the same compound, the “The results of antibiotic drug inhibiting cancer cell lines (cell viability analysis), AGS” value in data set [15] is on record as 140.3. Besides, in data set [16], the “The results of antibiotic drug inhibiting cancer cell lines (cell viability analysis), MCF-7” value was found to be 89.24. The “The results of antibiotic drug inhibiting cancer cell lines (cell viability analysis), TOV-21G” value with TOV-21G is on record as 105.7. Besides, in [17], the “The results of antibiotic drug inhibiting cancer cell lines (cell viability analysis), Hep3B” value was 103.3. Besides, in [18], the “The results of antibiotic drug inhibiting cancer cell lines (cell viability analysis), HepG2” value was determined as 143.9.
